Laboratory results: the OligoGym collection
HELM strings list units from the 5' end as sugar, base in round brackets, then linkage (d deoxyribose, r ribose, m 2'-O-methyl, p phosphodiester). Strings are as the collection lists them; they lack the last nucleoside at the 3' end of the tested compound. [moe] = 2'-O-(2-methoxyethyl) (MOE); [sp] = phosphorothioate linkage; [m5C] = 5-methylcytosine

The substances below were run against GFAP (assay: mouse, dose not given). Conditions: ASO.

Row | Substance | 3 h FOB score [score 0-7]
1 | RNA1{[moe]([m5C])[sp].[moe](T)p.[moe](T)p.[moe](T)p.[moe](A)p.[moe](T)p.d(T)[sp].d(T)[sp].d(T)[sp].d(T)[sp].d([m5C])[sp].d([m5C])[sp].d(T)[sp].d([m5C])[sp].d(A)[sp].d(G)[sp].[moe]([m5C])p.[moe](G)[sp].[moe](A)}$$$$ (last 3' nucleoside missing) | 1
2 | RNA1{[moe]([m5C])[sp].[moe](T)p.[moe](T)p.[moe](T)p.[moe](T)p.d(G)[sp].d(A)[sp].d(G)[sp].d(A)[sp].d(T)[sp].d(A)[sp].d(T)[sp].d([m5C])[sp].d(T)[sp].d(T)[sp].[moe](G)p.[moe](T)p.[moe](G)[sp].[moe](A)}$$$$ (last 3' nucleoside missing) | 0
3 | RNA1{[moe]([m5C])[sp].[moe](T)p.[moe](T)p.[moe](T)p.[moe]([m5C])[sp].d(T)[sp].d([m5C])[sp].d(T)[sp].d([m5C])[sp].d([m5C])[sp].d(T)[sp].d(G)[sp].d(T)[sp].d(T)[sp].d(T)[sp].[moe]([m5C])p.[moe](A)p.[moe](G)[sp].[moe]([m5C])}$$$$ (last 3' nucleoside missing) | 3
4 | RNA1{[moe]([m5C])[sp].[moe](T)p.[moe](T)p.[moe](T)p.d(T)[sp].d(G)[sp].d(A)[sp].d(G)[sp].d(A)[sp].d(T)[sp].d(A)[sp].d(T)[sp].d([m5C])[sp].d(T)[sp].[moe](T)p.[moe](G)p.[moe](T)p.[moe](G)[sp].[moe](A)}$$$$ (last 3' nucleoside missing) | 1
5 | RNA1{[moe]([m5C])[sp].[moe](T)p.[moe]([m5C])p.[moe](A)p.[moe](G)p.[moe](T)p.d(T)[sp].d(T)[sp].d(T)[sp].d([m5C])[sp].d([m5C])[sp].d(T)[sp].d([m5C])[sp].d([m5C])[sp].d(A)[sp].d(G)[sp].[moe]([m5C])p.[moe](A)[sp].[moe](G)}$$$$ (last 3' nucleoside missing) | 2
6 | RNA1{[moe]([m5C])[sp].[moe](T)p.[moe]([m5C])p.[moe](T)p.[moe](A)[sp].d(T)[sp].d([m5C])[sp].d([m5C])[sp].d([m5C])[sp].d(T)[sp].d([m5C])[sp].d([m5C])[sp].d([m5C])[sp].d(A)[sp].d(G)[sp].[moe]([m5C])p.[moe](A)p.[moe]([m5C])[sp].[moe]([m5C])}$$$$ (last 3' nucleoside missing) | 2
7 | RNA1{[moe]([m5C])[sp].[moe](T)p.[moe]([m5C])p.[moe](T)p.[moe](G)p.d([m5C])[sp].d([m5C])[sp].d(A)[sp].d(T)[sp].d(T)[sp].d(T)[sp].d(A)[sp].d(T)[sp].d([m5C])[sp].d(T)[sp].[moe](G)p.[moe](T)p.[moe](G)[sp].[moe]([m5C])}$$$$ (last 3' nucleoside missing) | 0
8 | RNA1{[moe]([m5C])[sp].[moe](T)p.[moe]([m5C])p.[moe]([m5C])p.[moe](A)[sp].d(T)[sp].d([m5C])[sp].d(T)[sp].d([m5C])[sp].d(T)[sp].d(G)[sp].d(G)[sp].d([m5C])[sp].d(A)[sp].d(A)[sp].[moe]([m5C])p.[moe](A)p.[moe](G)[sp].[moe](T)}$$$$ (last 3' nucleoside missing) | 4
9 | RNA1{[moe]([m5C])[sp].[moe](T)p.[moe]([m5C])p.[moe]([m5C])p.[moe](T)[sp].d(G)[sp].d(T)[sp].d(T)[sp].d(T)[sp].d([m5C])[sp].d(A)[sp].d(G)[sp].d([m5C])[sp].d(A)[sp].d(T)[sp].[moe]([m5C])p.[moe](T)p.[moe](T)[sp].[moe]([m5C])}$$$$ (last 3' nucleoside missing) | 2
10 | RNA1{[moe]([m5C])[sp].[moe]([m5C])p.[moe](A)p.[moe](G)p.[moe](T)[sp].d(G)[sp].d(T)[sp].d([m5C])[sp].d(T)[sp].d(T)[sp].d([m5C])[sp].d(A)[sp].d([m5C])[sp].d(T)[sp].d(T)[sp].[moe](T)p.[moe](G)p.[moe]([m5C])[sp].[moe](T)}$$$$ (last 3' nucleoside missing) | 0
11 | RNA1{[moe]([m5C])[sp].[moe]([m5C])p.[moe](A)p.[moe](G)p.[moe](T)[sp].d(G)[sp].d([m5C])[sp].d([m5C])[sp].d([m5C])[sp].d(T)[sp].d(T)[sp].d([m5C])[sp].d([m5C])[sp].d([m5C])[sp].d(A)[sp].[moe]([m5C])p.[moe](G)p.[moe](A)[sp].[moe](G)}$$$$ (last 3' nucleoside missing) | 2
12 | RNA1{[moe]([m5C])[sp].[moe]([m5C])p.[moe](A)p.[moe](G)p.[moe](T)p.d(G)[sp].d(T)[sp].d([m5C])[sp].d(T)[sp].d(T)[sp].d([m5C])[sp].d(A)[sp].d([m5C])[sp].d(T)[sp].d(T)[sp].[moe](T)p.[moe](G)p.[moe]([m5C])[sp].[moe](T)}$$$$ (last 3' nucleoside missing) | 0
13 | RNA1{[moe]([m5C])[sp].[moe]([m5C])p.[moe](A)p.[moe](T)p.[moe](T)[sp].d(T)[sp].d(A)[sp].d(T)[sp].d([m5C])[sp].d(T)[sp].d(G)[sp].d(T)[sp].d(G)[sp].[moe]([m5C])p.[moe](T)p.[moe](T)[sp].[moe](T)}$$$$ (last 3' nucleoside missing) | 4
14 | RNA1{[moe]([m5C])[sp].[moe]([m5C])p.[moe](A)p.[moe](T)p.[moe](T)[sp].d(T)[sp].d(A)[sp].d(T)[sp].d([m5C])[sp].d(T)[sp].d(G)[sp].d(T)[sp].d(G)[sp].d([m5C])[sp].d(T)[sp].[moe](T)p.[moe](T)p.[moe](A)[sp].[moe](G)}$$$$ (last 3' nucleoside missing) | 6
15 | RNA1{[moe]([m5C])[sp].[moe]([m5C])p.[moe](T)p.[moe](G)p.[moe](T)p.[moe](G)p.d(A)[sp].d([m5C])[sp].d(T)[sp].d(A)[sp].d(T)[sp].d([m5C])[sp].d(T)[sp].d(A)[sp].d(G)[sp].d(G)[sp].[moe](A)p.[moe](T)[sp].[moe](T)}$$$$ (last 3' nucleoside missing) | 1
16 | RNA1{[moe]([m5C])[sp].[moe]([m5C])p.[moe](T)p.[moe](G)p.[moe](T)p.d(G)[sp].d(A)[sp].d([m5C])[sp].d(T)[sp].d(A)[sp].d(T)[sp].d([m5C])[sp].d(T)[sp].d(A)[sp].d(G)[sp].[moe](G)p.[moe](A)p.[moe](T)[sp].[moe](T)}$$$$ (last 3' nucleoside missing) | 2
17 | RNA1{[moe]([m5C])[sp].[moe]([m5C])p.[moe](T)p.[moe](T)p.[moe](G)p.d(T)[sp].d(G)[sp].d(A)[sp].d(T)[sp].d(T)[sp].d(T)[sp].d(T)[sp].d([m5C])[sp].d([m5C])[sp].d([m5C])[sp].[moe]([m5C])p.[moe](G)p.[moe](T)[sp].[moe]([m5C])}$$$$ (last 3' nucleoside missing) | 0
18 | RNA1{[moe]([m5C])[sp].[moe]([m5C])p.[moe](T)p.[moe](T)p.d(G)[sp].d(T)[sp].d(G)[sp].d(A)[sp].d(T)[sp].d(T)[sp].d(T)[sp].d(T)[sp].d([m5C])[sp].d([m5C])[sp].[moe]([m5C])p.[moe]([m5C])p.[moe](G)p.[moe](T)[sp].[moe]([m5C])}$$$$ (last 3' nucleoside missing) | 1
19 | RNA1{[moe]([m5C])[sp].[moe]([m5C])p.[moe]([m5C])p.[moe](T)p.[moe]([m5C])[sp].d(T)[sp].d(T)[sp].d([m5C])[sp].d([m5C])[sp].d(T)[sp].d([m5C])[sp].d([m5C])[sp].d(A)[sp].d(G)[sp].d([m5C])[sp].[moe]([m5C])p.[moe](G)p.[moe]([m5C])[sp].[moe](G)}$$$$ (last 3' nucleoside missing) | 5
20 | RNA1{[moe]([m5C])[sp].[moe]([m5C])p.[moe]([m5C])p.[moe]([m5C])p.[moe](T)[sp].d(T)[sp].d(T)[sp].d([m5C])[sp].d(T)[sp].d([m5C])[sp].d(T)[sp].d([m5C])[sp].d([m5C])[sp].d(T)[sp].d(G)[sp].[moe](T)p.[moe](T)p.[moe](T)[sp].[moe]([m5C])}$$$$ (last 3' nucleoside missing) | 2
21 | RNA1{[moe]([m5C])[sp].[moe]([m5C])p.[moe]([m5C])p.[moe]([m5C])p.[moe](T)[sp].d([m5C])[sp].d(T)[sp].d(T)[sp].d([m5C])[sp].d([m5C])[sp].d(T)[sp].d([m5C])[sp].d([m5C])[sp].d(A)[sp].d(G)[sp].[moe]([m5C])p.[moe]([m5C])p.[moe](G)[sp].[moe]([m5C])}$$$$ (last 3' nucleoside missing) | 3
22 | RNA1{[moe]([m5C])[sp].[moe]([m5C])p.[moe]([m5C])p.[moe]([m5C])p.[moe]([m5C])[sp].d(T)[sp].d([m5C])[sp].d(T)[sp].d(A)[sp].d(T)[sp].d([m5C])[sp].d([m5C])[sp].d([m5C])[sp].d(T)[sp].d([m5C])[sp].[moe]([m5C])p.[moe]([m5C])p.[moe](A)[sp].[moe](G)}$$$$ (last 3' nucleoside missing) | 0
